Experiments:
sedge, umbrella = test: Test B flooded paddy test; type: in vivo, Cyperus difformis; details: 500 g ai/ha, Flood; scale of 0 to 100 where 0 is no effect and 100 is complete control
In short: (§1)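 Treatment was made at the 2-leaf stage by dosing the standing floodwater, kept 3 cm above soil level for the whole test. Greenhouse exposure lasted 13 to 15 days. Response is a visual percent rating relative to controls, where a dash indicates no test result.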

crabgrass, large = test: Test C pre-/postemergence herbicide test; type: in vivo, Digitaria sanguinalis
In short: (§2)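 Plants grown and held in a greenhouse for 13 to 15 days post-spray, then rated 0–100 by visual comparison with controls. Pre treatments targeted seeds in loam and sand; post treatments targeted 1- to 4-leaf plants in peat-based potting medium.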

velvetleaf = test: Test C pre-/postemergence herbicide test; type: in vivo, Abutilon theophrasti
In short: as §2

barnyardgrass [1] = test: Test C pre-/postemergence herbicide test; type: in vivo, Echinochloa crus-galli
In short: as §2

waterhemp = test: Test C pre-/postemergence herbicide test; type: in vivo, Amaranthus rudis
In short: as §2

giant foxtail = test: Test A pre-/postemergence herbicide test; type: in vivo, Setaria faberii
In short: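 Approximately 10 days after treatment in the greenhouse, plants were compared with untreated controls and given a 0–100 visual injury rating. Applications: preemergence directed soil spray; postemergence on 2–10 cm plants at the one- to two-leaf stage.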

johnsongrass = test: Test C pre-/postemergence herbicide test; type: in vivo, Sorghum halepense
In short: as §2

oat, wild = test: Test C pre-/postemergence herbicide test; type: in vivo, Avena fatua; details: Postemergence
In short: as §2

ryegrass, Italian = test: Test C pre-/postemergence herbicide test; type: in vivo, Lolium multiflorum
In short: as §2

ragweed = test: Test C pre-/postemergence herbicide test; type: in vivo, Ambrosia elatior
In short: as §2

barnyardgrass [2] = test: Test B flooded paddy test; type: in vivo, Echinochloa crus-galli; details: 500 g ai/ha, Flood; scale of 0 to 100 where 0 is no effect and 100 is complete control
In short: as §1

[3] = Postemergence, 31 g ai/ha, scale 0 to 100 (0 no effect, 100 complete control)
[4] = Postemergence, 62 g ai/ha, scale 0 (no effect) to 100 (complete control)
[5] = Postemergence, 125 g ai/ha, scale 0 to 100 (0 no effect, 100 complete control)
[6] = Postemergence, 250 g ai/ha, scale 0 to 100 (0 no effect, 100 complete control)
[7] = Preemergence, 31 g ai/ha, scale 0 to 100, 0 is no effect and 100 is complete control
[8] = Preemergence, 62 g ai/ha, scale 0 to 100 (0 no effect, 100 complete control)
[9] = Preemergence, 125 g ai/ha, scale 0 to 100 (0 no effect, 100 complete control)

O=C1NCC(c2cccc(Cl)c2)C1C(=O)Nc1cccc(F)c1F (racemic) [Compound 275]
80: Barnyardgrass plant response rating (barnyardgrass [1]; [7])
30: Plant response rating, Sedge, Umbrella (sedge, umbrella) | Plant response rating (scale of 0 to 100), Velvetleaf (velvetleaf; Preemergence, 250 g ai/ha) | Plant response rating, Barnyardgrass (barnyardgrass [1]; [3])
90: Crabgrass, Large plant response rating (crabgrass, large; [7]) | Plant response rating, Foxtail, Giant (giant foxtail; Postemergence, 125 g ai/ha, 0 to 100 scale, 0 is no effect, 100 is complete control) | Plant response rating, Foxtail, Giant (giant foxtail; Postemergence, 500 g ai/ha, 0 to 100 scale (0 no effect, 100 complete control)) | Plant response rating, Foxtail, Giant (giant foxtail; Preemergence, 125 g ai/ha, 0 to 100 scale where 0 is no effect and 100 is complete control) | Plant response rating, Foxtail, Giant (giant foxtail; preemergence, 500 g ai/ha, 0 to 100 scale, 0 is no effect and 100 is complete control)
0: Velvetleaf plant response rating (velvetleaf; [7]) | Velvetleaf plant response rating (velvetleaf; [8]) | Plant response rating, Waterhemp (waterhemp; [3]) | Plant response rating, Waterhemp (waterhemp; [4]) | Plant response rating, Waterhemp (waterhemp; [5]) | Waterhemp plant response rating (waterhemp; [7]) | Waterhemp plant response rating (waterhemp; [8]) | Plant response rating, Johnsongrass (johnsongrass; [3]) | Plant response rating, Johnsongrass (johnsongrass; [4]) | Plant response rating, Johnsongrass (johnsongrass; [5]) | Plant response rating, Oat, Wild (oat, wild; 31 g ai/ha, scale 0 to 100 (0 no effect, 100 complete control)) | Plant response rating, Oat, Wild (oat, wild; 62 g ai/ha, scale 0 (no effect) to 100 (complete control)) | Plant response rating, Oat, Wild (oat, wild; 125 g ai/ha, scale 0 to 100 (0 no effect, 100 complete control)) | Plant response rating, Ryegrass, Italian (ryegrass, Italian; [3]) | Plant response rating, Ryegrass, Italian (ryegrass, Italian; [4])
5: Plant response rating, Velvetleaf (velvetleaf; [3]) | Plant response rating, Oat, Wild (oat, wild; 250 g ai/ha, scale 0 to 100 (0 no effect, 100 complete control)) | Plant response rating, Ryegrass, Italian (ryegrass, Italian; [5]) | Ragweed plant response rating (ragweed; [7]) | Ragweed plant response rating (ragweed; [8])
25: Plant response rating, Velvetleaf (velvetleaf; [9]) | Plant response rating, Johnsongrass (johnsongrass; [6]) | Plant response rating, Ryegrass, Italian (ryegrass, Italian; [6])
15: Plant response rating, Crabgrass, Large (crabgrass, large; [3]) | Plant response rating, Waterhemp (waterhemp; [9]) | Ryegrass, Italian plant response rating (ryegrass, Italian; [7])
50: Plant response rating, Velvetleaf (velvetleaf; [6]) | Johnsongrass plant response rating (johnsongrass; [8]) | Plant response rating, Ryegrass, Italian (ryegrass, Italian; [9])
98: Plant response rating (scale of 0 to 100; 0 is no effect, 100 is complete control), Barnyardgrass (barnyardgrass [1]; Preemergence, 250 g ai/ha)
70: Plant response rating, Ragweed (ragweed; [5]) | Plant response rating, Ragweed (ragweed; [6])
10: Plant response rating, Velvetleaf (velvetleaf; [4]) | Plant response rating, Velvetleaf (velvetleaf; [5]) | Johnsongrass plant response rating (johnsongrass; [7])
100: Plant response rating, Crabgrass, Large (crabgrass, large; [9]) | Plant response rating (scale of 0 to 100), Crabgrass, Large (crabgrass, large; Preemergence, 250 g ai/ha)
95: Crabgrass, Large plant response rating (crabgrass, large; [8]) | Barnyardgrass plant response rating (barnyardgrass [1]; [8]) | Plant response rating, Barnyardgrass (barnyardgrass [1]; [9])
65: Plant response rating, Crabgrass, Large (crabgrass, large; [5]) | Plant response rating, Ragweed (ragweed; [4])
20: Plant response rating, Waterhemp (waterhemp; [6]) | Plant response rating, Ragweed (ragweed; [3])
75: Plant response rating, Barnyardgrass (barnyardgrass [1]; [5]) | Plant response rating, Johnsongrass (johnsongrass; [9])
85: Plant response rating, Crabgrass, Large (crabgrass, large; [6]) | Plant response rating, Barnyardgrass (barnyardgrass [1]; [6]) | Plant response rating (scale of 0 to 100), Johnsongrass (johnsongrass; Preemergence, 250 g ai/ha) | Plant response rating (scale of 0 to 100), Ragweed (ragweed; Preemergence, 250 g ai/ha) | Plant response rating, Barnyardgrass (barnyardgrass [2])
60: Plant response rating, Barnyardgrass (barnyardgrass [1]; [4]) | Plant response rating (scale of 0 to 100), Waterhemp (waterhemp; Preemergence, 250 g ai/ha) | Plant response rating (scale of 0 to 100), Ryegrass, Italian (ryegrass, Italian; Preemergence, 250 g ai/ha) | Plant response rating, Ragweed (ragweed; [9])
40: Plant response rating, Crabgrass, Large (crabgrass, large; [4]) | Ryegrass, Italian plant response rating (ryegrass, Italian; [8])

— US10294202B2, “Pyrrolidinones as herbicides” (FMC Corporation, priority 2013, dated 2019)
